Tests used:
E. faecalis = test: Agar plate zone of growth inhibition; assay type: cell-based
Protocol: (§1) The higher alcohols were tested for antimicrobial activity against Gram positive bacteria (Streptococcus mutans), Gram negative bacteria (Pseudomonas spp., Escherichia coli, […]) and the yeast Candida albicans. […] Five microliters of the higher alcohol solutions were placed on the surface of a rich (Brain-heart infusion) agar plate immediately after seeding with a mono-specific bacterial or yeast culture. The plates were incubated for 24-48 hours, and, following further microbial proliferation, the diameters of the zones of growth inhibition were measured (results expressed in centimeters).

Pseudomonas aeruginosa = test: Agar plate zone of growth inhibition; assay type: cell-based
Protocol: as §1

E. coli = test: Agar plate zone of growth inhibition; assay type: cell-based, Escherichia coli
Protocol: as §1

C. albicans = test: Agar plate zone of growth inhibition; assay type: cell-based, Candida albicans
Protocol: as §1

[1] = system: odor formation in freshly-taken morning saliva; test: Inhibition of in vitro odor formation by higher alcohols (saliva in decarboxylase medium); assay type: cell-based; settings: for effect on in vitro odor formation (summary): 10-50 μl of 1% solution
Protocol: A series of test tubes were prepared, each containing 5 ml of decarboxylase medium (0.5% peptone, 0.3% yeast extract, 0.1% dextrose and 0.02% bromocresol purple). […] The tubes were incubated at 37° C. for three days. Following incubation, the odor was determined by a panel of odor judges, using the following semi-quantitative scale 0=no odor 1=very slight odor […] The higher alcohols tested were alkanols of chain length C8, C9, C10, C11, C12, C14, C16 and C18.

[2] = system: bacteria and yeast tested; test: Agar plate growth inhibition, summary statements over the test microorganisms; assay type: cell-based; settings: Table VI microorganisms
Protocol: as §1, with “centimeters). In a further set of experiments, the effect of solvent type on the antimicrobial activity of the C9 alcohol was investigated. […] These solutions were tested for antimicrobial activity towards three microorganisms (M. lysodeikticus, S. mutans and Corynebacterium xerosis) using the same assay as described above. The relationship of the concentration of the C9 alcohol to its antimicrobial activity was also investigated. […] These solutions were tested in the assay described above for their ability to inhibit the growth of the bacteria M. lysodeikticus and S. mutans.” for “centimeters).”

M. lysodeikticus = test: Agar plate zone of growth inhibition; assay type: cell-based; settings: solvent alone (100%), no C9
Protocol: (§2) Five microliters of the higher alcohol solutions were placed on the surface of a rich (Brain-heart infusion) agar plate immediately after seeding with a mono-specific bacterial or yeast culture. The plates were incubated for 24-48 hours, and, following further microbial proliferation, the diameters of the zones of growth inhibition were measured (results expressed in centimeters). In a further set of experiments, the effect of solvent type on the antimicrobial activity of the C9 alcohol was investigated. […] These solutions were tested for antimicrobial activity towards three microorganisms (M. lysodeikticus, S. mutans and Corynebacterium xerosis) using the same assay as described above. The relationship of the concentration of the C9 alcohol to its antimicrobial activity was also investigated. […] These solutions were tested in the assay described above for their ability to inhibit the growth of the bacteria M. lysodeikticus and S. mutans.

C. xerosis = test: Agar plate zone of growth inhibition; assay type: cell-based, Corynebacterium xerosis; settings: solvent alone (100%), no C9
Protocol: Five microliters of the higher alcohol solutions were placed on the surface of a rich (Brain-heart infusion) agar plate immediately after seeding with a mono-specific bacterial or yeast culture. The plates were incubated for 24-48 hours, and, following further microbial proliferation, the diameters of the zones of growth inhibition were measured (results expressed in centimeters). In a further set of experiments, the effect of solvent type on the antimicrobial activity of the C9 alcohol was investigated. […] These solutions were tested for antimicrobial activity towards three microorganisms (M. lysodeikticus, S. mutans and Corynebacterium xerosis) using the same assay as described above.

S. mutans = test: Agar plate zone of growth inhibition; assay type: cell-based, Streptococcus mutans; settings: solvent alone (100%), no C9
Protocol: as §2, with “The higher alcohols were tested for antimicrobial activity against Gram positive bacteria (Streptococcus mutans), Gram negative bacteria (Pseudomonas spp., Escherichia coli, […]) and the yeast Candida albicans. […] Five” for “Five”

[3] = 5 μl of 1% solution (C8-C12 in 70% ethanol, C14-C18 in 100% ethanol)
[4] = 5 μl of 0.1% solution in 70% ethanol
[5] = 10 μl of 1% solution, scale 0-5
[6] = 20 μl of 1% solution, scale 0-5
[7] = 30 μl of 1% solution, scale 0-5
[8] = 40 μl of 1% solution, scale 0-5
[9] = 50 μl of 1% solution (C8-C12 in 70% ethanol, C14-C18 in 100% ethanol) in 5 ml medium + 200 μl saliva, 3 days 37° C., scale 0 no odor to 5 extremely foul
[10] = 50 μl of 1% solution, scale 0-5

| Compound | diameter of zone of growth inhibition, Pseudomonas aeruginosa (Pseudomonas aeruginosa; [4]) | diameter of zone of growth inhibition, Pseudomonas aeruginosa (Pseudomonas aeruginosa; [3]) | diameter of zone of growth inhibition, E. coli (E. coli; [4]) [centimeters] | diameter of zone of growth inhibition, C. albicans (C. albicans; [4]) [centimeters] | Odor Score (Judge 1) [1, 5] | Odor Score (Judge 2) [1, 5] | Odor Score (Judge 1) [1, 6] | Odor Score (Judge 2) [1, 6] | Odor Score (Judge 1) [1, 7] | Odor Score (Judge 2) [1, 7] | Odor Score (Judge 1) [1, 8] | Odor Score (Judge 2) [1, 8] | Odor Score (Judge 1) [1, 9] | Odor Score (Judge 2) [1, 10] | effect on microbial growth (summary) [2] | diameter of zone of growth inhibition, C. xerosis (C. xerosis) [centimeters] | further results |
| --- | --- | --- | --- | --- | --- | --- | --- | --- | --- | --- | --- | --- | --- | --- | --- | --- | --- |
| CCCCCCCCCCCCO [C12] | + − | + − | 0.6 | 0.6 | 5 | 5 | 4 | 4 | 3 | 3 | 2 | 3 | 2 | 3.5 | inhibit microbial growth | – | diameter of zone of growth inhibition, E. faecalis (E. faecalis; [3]): 0.7 centimeters |
| CC(C)O [2-propanol, reference compound] | – | – | – | – | – | – | – | – | – | – | – | – | – | – | – | 0.8 | diameter of zone of growth inhibition, M. lysodeikticus (M. lysodeikticus): 1.1 centimeters; diameter of zone of growth inhibition, S. mutans (S. mutans): 0.9 centimeters |
| CCCCCCCCCCO [C10, 1-decanol] | 0.8 centimeters | 0.8 centimeters | 0.8 | 0.7 | 4 | 4 | 0 | 0 | 0 | 0 | 0 | 0 | 0 | 0 | inhibit microbial growth | – | diameter of zone of growth inhibition, E. faecalis (E. faecalis; [4]): 0.9 centimeters; diameter of zone of growth inhibition, E. coli (E. coli; [3]): 0.7 centimeters; diameter of zone of growth inhibition, C. albicans (C. albicans; [3]): 0.8 centimeters; effect on in vitro odor formation (summary) [1]: inhibition of odor formation |
| CO [methanol, reference compound] | – | – | – | – | – | – | – | – | – | – | – | – | – | – | – | 0.7 | – |
| CCCCCCCCCCCO [C11, 1-undecanol] | 0.4 centimeters | 0.7 centimeters | 0.7 | 0.7 | 5 | 5 | 0 | 0.5 | 0 | 0 | 0 | 0 | 0 | 0 | inhibit microbial growth | – | diameter of zone of growth inhibition, E. faecalis (E. faecalis; [4]): 1.0 centimeters; diameter of zone of growth inhibition, E. coli (E. coli; [3]): 0.7 centimeters; diameter of zone of growth inhibition, C. albicans (C. albicans; [3]): 0.8 centimeters; effect on in vitro odor formation (summary) [1]: inhibition of odor formation |
| CCCCCCCCO [C8] | – | 0.5 centimeters | – | – | 4 | 3 | 3 | 3 | 3 | 3 | 4 | 3 | 4 | 4 | – | – | diameter of zone of growth inhibition, E. faecalis (E. faecalis; [3]): + −; inhibition of the yeast C. albicans (summary) (C. albicans; opaque inhibition zone on the agar plate): only partial inhibition |
| OCC(O)CO [glycerol, reference compound] | – | – | – | – | – | – | – | – | – | – | – | – | – | – | – | 0.2 | – |

— patent US20030175216A1, “Oral antimicrobial and anti-odor compositions” (Innoscent LTD., priority 2001, published 2003)
